# Data reported in patent US11980596B2 (priority 2017, dated 2024).
# How the values were obtained:
# [1] = system: patients with treatment-resistant depression (TRD); assay: MADRS total score, response and remission (Example 7, phase 2 dose-response study); type: in vivo, human; details: for MADRS: treatment difference relative to placebo: day 15, completers, same treatment 2 weeks; for MADRS: LS mean difference vs placebo, range over dose groups: 28, 56, 84 mg
# Protocol: At the beginning of double-blind Period 1, eligible participants were randomized (3:1:1:1) to intranasal placebo or esketamine 28, 56, or 84 mg, twice weekly (days 1 and 4) based on the first of two computer-generated randomization schedules (Period 1 and Period 2). Randomization was balanced by using randomly permuted blocks and stratified by study center. At the end of Period 1, those randomized to placebo who had moderate-to-severe symptoms (assessed by Quick Inventory of Depressive Symptomatology-Self Report (Trivedi 2016 and Rush, “The 16-item Quick Inventory of Depressive Symptomatology (QIDS) Clinician Rating (QIDS-C) and Self-Report (QIDS-SR): A psychometric evaluation in patients with chronic major depression”, Biol. Psychiatry, 2003, 54(5):573-583) [QIDS-SR16] total score: moderate, 11-16; severe, >16) were re-randomized (1:1:1:1) to intranasal esketamine 28, 56, or 84 mg or placebo, twice weekly (days 8 and 11), while those having mild or no symptoms continued on placebo. To maintain the blind, all participants completed an identical process prior to entry into Period 2, whether or not they were re-randomized. Regardless of response in the double-blind phase, all participants were eligible to enter the optional open-label phase. Esketamine (56 mg) was administered on the first day of the open-label phase (study day 15); subsequent doses could be adjusted (range: 28 to 84 mg) based on investigator's clinical judgment, with administration twice weekly for first 2 weeks, weekly for next 3 weeks, then every 2 weeks thereafter.
# Efficacy was assessed with the Montgomery-Asberg Depression Rating Scale (MADRS; Montgomery, “A new depression scale designed to be sensitive to change”, Br. J. Psychiatry, 1979, 134:382-389; Williams, “Development and reliability of a structured interview guide for the Montgomery Asberg Depression Rating Scale (SIGMA)”, Br. J. Psychiatry, 2008, 192(1):52-58) on days 1 (pre-dose and 2 hour post-dose), 2, 8 (pre-dose), 9, and 15, using the structured interview guide (SIGMA). See, Williams 2008.
# The primary efficacy endpoint—change from baseline (pre-dose, day 1 in each period) to endpoint (day 8 in each period) in MADRS total score—was analyzed using the analysis of covariance (ANCOVA) model. For Period 1, the model included treatment and country as factors, and baseline MADRS total score as covariate. For Period 2, the model included treatment and country as factors, Period 2 baseline QIDS-SR16 score (moderate or severe), and Period 2 baseline MADRS total score as a continuous covariate.
# Given the consistency between Periods 1 and 2 results (Chi 2016), esketamine dose groups were compared to placebo using a combined test on the weighted test statistics for each period in the double-blind treatment phase. A dose-response analysis on primary efficacy endpoint was performed using data combined from both periods. The Multiple Comparison Procedure—Modelling (MCP-Mod) methodology was performed (Williams 2008; Bretz, “Combining multiple comparisons and modeling techniques in dose-response studies”, Biometrics, 2005, 61:738-748).
# [2] = system: subjects with MDD at imminent risk for suicide; type: in vivo, human; details: post dose
# Protocol: Transient blood pressure increases peaked for the esketamine group at approximately 40 minutes post dose with the maximum mean increases (across all dosing days) in systolic BP being 8.7 in the placebo group and 16.7 in the esketamine 84 mg group. The maximum mean increases (across all dosing days) in diastolic BP were 7.6 in the placebo group and 11.9 in the esketamine 84 mg group. […] See, FIGS. 46 and 47.
# [3] = system: patients with TRD; assay: Adverse reactions in SPRAVATO clinical trials (label); type: in vivo, human; details: up to 4 weeks after cessation of treatment
# Protocol: SPRAVATO was evaluated for safety in 1709 patients diagnosed with treatment resistant depression (TRD) [see Clinical Studies (14.1, 14.2)] from five Phase 3 studies (3 short-term and 2 long-term studies) and one Phase 2 dose-ranging study. Of all SPRAVATO-treated patients in the completed Phase 3 studies, 479 (30%) received at least 6 months of treatment, and 178 (11%) received at least 12 months of treatment.
# In short-term studies in adults<65 years old (Study 1 pooled with another 4-week study), the proportion of patients who discontinued treatment because of an adverse reaction was 4.6% in patients who received SPRAVATO plus oral AD compared to 1.4% for patients who received placebo nasal spray plus oral AD. For adults 65 years old, the proportions were 5.6% and 3.1%, respectively. In Study 2, a long-term maintenance study, the discontinuation rates because of an adverse reaction were similar for patients receiving SPRAVATO plus oral AD and placebo nasal spray plus oral AD in the maintenance phase, at 2.6% and 2.1%, respectively.
# SPRAVATO can cause nausea and vomiting (Table 7). Most of these events occurred on the day of dosing and resolved the same day, with the median duration not exceeding 1 hour in most subjects across dosing sessions. […]
# [4] = system: subjects with MDD at imminent risk for suicide; details: post dose
# Protocol: The CADSS was measured prior to the start of each dose, at 40 minutes, 2 hours, and 4 hours postdose.
# [5] = system: elderly subjects with TRD; type: in vivo, human; details: each dosing day
# Text: The Modified Observer's Assessment of Alertness/Sedation (MOAA/S) was used to measure treatment-emergent sedation with correlation to levels of sedation defined by the American Society of Anesthesiologists (ASA) continuum. The MOAA/S scores range from 0 (No response to painful stimulus; corresponds to ASA continuum for general anesthesia) to 5 (Readily responds to name spoken in normal tone [awake]; corresponds to ASA continuum for minimal sedation). The proportion of subjects with sedation was <4% for the esketamine group for each dosing day.
# [6] = Pharmacokinetics of esketamine nasal spray, 14 Phase 1 studies (Example 10); details: young adult subjects
# Protocol: The data herein was assembled from 14 Phase 1 studies; each Phase 1 study was performed similarly to the study outlined in Example 9 in which the PK of esketamine was assessed.
# [7] = OL endpoint - day 74, Placebo/Esketamine/OL Esketamine
# [8] = Period 1, study period endpoint, esketamine 28 mg
# [9] = Period 2, 2 hours, esketamine 84 mg
# [10] = Period 2, 24 hours, esketamine 84 mg
# [11] = Period 2, study period endpoint, esketamine 84 mg
# [12] = Week 8 (Follow-up), Placebo/Esketamine/OL Esketamine
smiles,measurement,setting,value
"CN[C@]1(c2ccccc2Cl)CCCCC1=O [esketamine, (S)-2-(2-chlorophenyl)-2-(methylamino)cyclohexanone]",MADRS: treatment difference relative to placebo,[1]; 28 mg,−6.0
same,MADRS: treatment difference relative to placebo,[1]; 56 mg,−8.3
same,Proportion of responders (MADRS),"[1]; 84 mg, Period 2 endpoint",50.0%
same,Remitted (MADRS),"[1]; 84 mg, after 2 weeks of treatment",40.0%
same,"MADRS response (≥50% improvement), %",[1]; [7],50.0%
same,"Remission (MADRS ≤10): No, %",[1]; [7],60.0%
same,"Remission (MADRS ≤10): Yes, %",[1]; [7],40.0%
same,"MADRS response (≥50% improvement), %","[1]; OL endpoint - day 74, Placebo/Placebo/OL Esketamine",100%
same,"MADRS Remitters, %","[1]; Period 1, 2 hours, esketamine 84 mg",(25.0) %
same,"MADRS Remitters, %","[1]; Period 1, 24 hours, esketamine 84 mg",(25.0) %
same,"MADRS Remitters, %",[1]; [8],(9.1) %
same,"MADRS Responders, %",[1]; [8],(9.1) %
same,"MADRS Remitters, %","[1]; Period 1, study period endpoint, esketamine 56 mg",(9.1) %
same,"MADRS Remitters, %","[1]; Period 1, study period endpoint, esketamine 84 mg",(25.0) %
same,"MADRS: LS mean difference vs placebo, range over dose groups",[1]; Period 1,−5.0 to −10.5
same,"MADRS Remitters, %",[1]; [9],(40.0) %
same,"MADRS Responders, %",[1]; [9],(40.0) %
same,"MADRS Remitters, %",[1]; [10],(20.0) %
same,"MADRS Responders, %",[1]; [10],(40.0) %
same,"MADRS Remitters, %",[1]; [11],(20.0) %
same,"MADRS Responders, %",[1]; [11],(20.0) %
same,"MADRS: LS mean difference vs placebo, range over dose groups",[1]; Period 2,−3.1 to −6.9
same,"MADRS response (≥50% improvement), %",[1]; [12],25.0%
same,"Remission (MADRS ≤10): No, %",[1]; [12],75.0%
same,"Remission (MADRS ≤10): Yes, %",[1]; [12],25.0%
same,Blood pressure returning to normal range by,[2],≤ 2 h
same,Withdrawal symptoms,[3],no withdrawal symptoms
same,Dissociative and perceptual change symptoms (CADSS) resolved by,[4],≤ 2 h
same,Proportion of subjects with sedation (post dose MOAA/S score of ≤3),[5],< 4%
same,"Tmax, range of median values","[6]; single dose esketamine nasal spray 28 mg, n = 64",19.8 to 40.2 min
same,"Tmax, range of median values","[6]; single dose esketamine nasal spray 56 mg, n = 86",30 to 46.2 min
same,"Tmax, range of median values","[6]; single dose esketamine nasal spray 84 mg, n = 167",31.8 to 49.8 min
